Experimental findings from patent US12692249B2, “WDR5 inhibitors and modulators” (Vanderbilt University, priority 2019, dated 2026) are described below.

Some results are limits rather than exact numbers.

The experiment deals with MV4:11 human cancer cell lines. The experiment is described as follows: Cellular viability / anti-proliferative assay, CellTiter-Glo, 5 day protocol. It counts as cell-based. The following applies: Homo sapiens, MV4-11, 120 h, MV4:11 cells; 5 day incubation; CellTiter-Glo; mean of at least two replicates; read-out: GI50 on cellular proliferation of MV4:11 human cancer cell lines. The protocol:
Cellular Viability of Human Tumor Cell Lines
Anti-proliferative activity using MLL-harboring cell lines. MV-4-11 and K562 cells are grown in IMDM media supplemented with 10% FBS and 1% penicillin/streptomycin, Molm-13 cells are cultured in RPMI-1640 media supplemented with 10% FBS and 1% penicillin/streptomycin. Viability assays are performed by dispensing 200 cells at 7200 cells/mL into each well of an opaque 384-well plate and adding compounds at the indicated concentrations in a final volume, of 32 μL. and a final concentration of DMSO of 0.3% for all samples. A certain range of compound concentrations is made through a series of 2-fold dilutions starting 30 μM at the highest, total 22 dilutions. After a set incubation period, 5 day protocol, the viability of cells in each well is assessed using the CellTiter-Glo assay (Promega), read on a 96 Microplane Luminometer (Cytation 3, BioTek). Serial dilutions of each cell type are performed in all assays to generate standard curves and the final densities of cells are determined within the dynamic range of the instrument. GI50 values are calculated based on XLfit software (IDBS, Guildford, UK) with Sigmoidal Dose-Response Model. Each compound is tested in minimum of two replicates. Data are expressed as mean.
A general note: In ATP-based viability assays light output follows the ATP content of the culture.

Regarding `COc1ccc2nc(C)cc(N3CCc4c(cc(Cn5ccnc5)cc4-c4cn(C)nc4C(F)(F)F)C3=O)c2c1` [Example 14, 7-((1H-Imidazol-1-yl)methyl)-2-(6-methoxy-2-methylquinolin-4-yl)-5-(1-methyl-3-(trifluoromethyl)-1H-pyrazol-4-yl)-3,4-dihydroisoquinolin-1(2H)-one], the GI50 came to 44 nM.

For `COc1cc(N2CCN(C(C)=O)CC2)c2nccc(N3CCc4c(cc(Cn5ccnc5)cc4-c4cn(C)nc4C(F)(F)F)C3=O)c2c1` [Example 32, 7-((1H-imidazol-1-yl)methyl)-2-(8-(4-acetylpiperazin-1-yl)-6-methoxyquinolin-4-yl)-5-(1-methyl-3-(trifluoromethyl)-1H-pyrazol-4-yl)-3,4-dihydroisoquinolin-1(2H)-one], the GI50 is under 20 nM.

As for `COc1cc(N2CCN(C)C(=O)C2)c2nccc(N3CCc4c(cc(Cn5ccnc5)cc4-c4cn(C)nc4C(F)(F)F)C3=O)c2c1` [Example 33, 7-((1H-Imidazol-1-yl)methyl)-2-(6-methoxy-8-(4-methyl-3-oxopiperazin-1-yl)quinolin-4-yl)-5-(1-methyl-3-(trifluoromethyl)-1H-pyrazol-4-yl)-3,4-dihydroisoquinolin-1(2H)-one], the GI50 is under 20 nM.

As to `CCc1cc(Br)c2nccc(N3CCc4c(cc(Cn5ccnc5)cc4-c4cn(C)nc4C(F)(F)F)C3=O)c2c1` [Example 34, 7-((1H-imidazol-1-yl)methyl)-2-(8-bromo-6-ethylquinolin-4-yl)-5-(1-methyl-3-(trifluoromethyl)-1H-pyrazol-4-yl)-3,4-dihydroisoquinolin-1(2H)-one], the GI50 is under 20 nM.

As for `COc1cc(C(=O)O)c2nccc(N3CCc4c(cc(Cn5ccnc5)cc4-c4cn(C)nc4C(F)(F)F)C3=O)c2c1` [Example 40, 4-(7-((1H-Imidazol-1-yl)methyl)-5-(1-methyl-3-(trifluoromethyl)-1H-pyrazol-4-yl)-1-oxo-3,4-dihydroisoquinolin-2(1H)-yl)-6-methoxyquinoline-8-carboxylic acid], the GI50 was 291 nM.

On to `COc1cc(C(N)=O)c2nccc(N3CCc4c(cc(Cn5ccnc5)cc4-c4cn(C)nc4C(F)(F)F)C3=O)c2c1` [Example 41, 4-(7-((1H-Imidazol-1-yl)methyl)-5-(1-methyl-3-(trifluoromethyl)-1H-pyrazol-4-yl)-1-oxo-3,4-dihydroisoquinolin-2(1H)-yl)-6-methoxyquinoline-8-carboxamide], for which the GI50 turned out to be 24 nM.

Turning to `COc1cc(C(=O)N2CCN(C)CC2)c2nccc(N3CCc4c(cc(Cn5ccnc5)cc4-c4cn(C)nc4C(F)(F)F)C3=O)c2c1` [Example 43, 7-((1H-Imidazol-1-yl)methyl)-2-(6-methoxy-8-(4-methylpiperazine-1-carbonyl)quinolin-4-yl)-5-(1-methyl-3-(trifluoromethyl)-1H-pyrazol-4-yl)-3,4-dihydroisoquinolin-1(2H)-one], the GI50 was determined as 563 nM.

For the molecule `COc1cc(C(=O)N(C)C)c2nccc(N3CCc4c(cc(Cn5ccnc5)cc4-c4cn(C)nc4C(F)(F)F)C3=O)c2c1` [Example 45, 4-(7-((1H-Imidazol-1-yl)methyl)-5-(1-methyl-3-(trifluoromethyl)-1H-pyrazol-4-yl)-1-oxo-3,4-dihydroisoquinolin-2(1H)-yl)-6-methoxy-N,N-dimethylquinoline-8-carboxamide], the GI50 is 326 nM.

As for `COc1cc(C(=O)N2CCOCC2)c2nccc(N3CCc4c(cc(Cn5ccnc5)cc4-c4cn(C)nc4C(F)(F)F)C3=O)c2c1` [Example 46, 7-((1H-Imidazol-1-yl)methyl)-2-(6-methoxy-8-(morpholine-4-carbonyl)quinolin-4-yl)-5-(1-methyl-3-(trifluoromethyl)-1H-pyrazol-4-yl)-3,4-dihydroisoquinolin-1(2H)-one], the GI50 is 444 nM.

As to `COc1cc(C(=O)NC(C)C)c2nccc(N3CCc4c(cc(Cn5ccnc5)cc4-c4cn(C)nc4C(F)(F)F)C3=O)c2c1` [Example 47, 4-(7-((1H-Imidazol-1-yl)methyl)-5-(1-methyl-3-(trifluoromethyl)-1H-pyrazol-4-yl)-1-oxo-3,4-dihydroisoquinolin-2(1H)-yl)-N-isopropyl-6-methoxyquinoline-8-carboxamide], the GI50 was found to be 54 nM.

Take `CCCCNC(=O)c1cc(OC)cc2c(N3CCc4c(cc(Cn5ccnc5)cc4-c4cn(C)nc4C(F)(F)F)C3=O)ccnc12` [Example 48, 4-(7-((1H-Imidazol-1-yl)methyl)-5-(1-methyl-3-(trifluoromethyl)-1H-pyrazol-4-yl)-1-oxo-3,4-dihydroisoquinolin-2(1H)-yl)-N-butyl-6-methoxyquinoline-8-carboxamide]: the GI50 came out at 119 nM.

As to `CCOC(=O)c1cc(CC)cc2c(N3CCc4c(cc(Cn5ccnc5)cc4-c4cn(C)nc4C(F)(F)F)C3=O)ccnc12` [Example 91, Ethyl 4-(7-((1H-imidazol-1-yl)methyl)-5-(1-methyl-3-(trifluoromethyl)-1H-pyrazol-4-yl)-1-oxo-3,4-dihydroisoquinolin-2(1H)-yl)-6-ethylquinoline-8-carboxylate], the GI50 was under 20 nM.

On to `CCc1cc(C(=O)O)c2nccc(N3CCc4c(cc(Cn5ccnc5)cc4-c4cn(C)nc4C(F)(F)F)C3=O)c2c1` [Example 92, 4-(7-((1H-imidazol-1-yl)methyl)-5-(1-methyl-3-(trifluoromethyl)-1H-pyrazol-4-yl)-1-oxo-3,4-dihydroisoquinolin-2(1H)-yl)-6-ethylquinoline-8-carboxylic acid], for which the GI50 amounted to 388 nM.

As to `CCc1cc(-c2cccn2C)c2nccc(N3CCc4c(cc(Cn5ccnc5)cc4-c4cn(C)nc4C(F)(F)F)C3=O)c2c1` [Example 97, 7-((1H-Imidazol-1-yl)methyl)-2-(6-ethyl-8-(1-methyl-1H-pyrrol-2-yl)quinolin-4-yl)-5-(1-methyl-3-(trifluoromethyl)-1H-pyrazol-4-yl)-3,4-dihydroisoquinolin-1(2H)-one], the GI50 was found to be 83 nM.

With `Cc1cc(N2CCN(C)CC2)c2cncc(N3CCc4c(cc(Cn5ccnc5)cc4-c4cn(C)nc4C(F)(F)F)C3=O)c2c1` [Example 100, 7-((1H-Imidazol-1-yl)methyl)-6′-methyl-5-(1-methyl-3-(trifluoromethyl)-1H-pyrazol-4-yl)-8′-(4-methylpiperazin-1-yl)-3,4-dihydro-1H-[2,4′-biisoquinolin]-1-one], the GI50 was under 20 nM.

Turning to `COc1cc(N2CCN(C)CC2)c2nc(C)cc(N3CCc4c(cc(Cn5ccnc5)cc4-c4cn(C)nc4C(F)(F)F)C3=O)c2c1` [Example 102, 7-((1H-Imidazol-1-yl)methyl)-2-(6-methoxy-2-methyl-8-(4-methylpiperazin-1-yl)quinolin-4-yl)-5-(1-methyl-3-(trifluoromethyl)-1H-pyrazol-4-yl)-3,4-dihydroisoquinolin-1(2H)-one], the GI50 was under 20 nM.

Turning to `COc1cc(N2CCN(C)C(=O)C2)c2nc(C)cc(N3CCc4c(cc(Cn5ccnc5)cc4-c4cn(C)nc4C(F)(F)F)C3=O)c2c1` [Example 105, 7-((1H-Imidazol-1-yl)methyl)-2-(6-methoxy-2-methyl-8-(4-methyl-3-oxopiperazin-1-yl)quinolin-4-yl)-5-(1-methyl-3-(trifluoromethyl)-1H-pyrazol-4-yl)-3,4-dihydroisoquinolin-1(2H)-one], the GI50 is under 20 nM.

On to `CCc1cc(N2CCN(C)C(=O)C2)c2nc(C)cc(N3CCc4c(cc(Cn5ccnc5)cc4-c4cn(C)nc4C(F)(F)F)C3=O)c2c1` [Example 111, 7-((1H-Imidazol-1-yl)methyl)-2-(6-ethyl-2-methyl-8-(4-methyl-3-oxopiperazin-1-yl)quinolin-4-yl)-5-(1-methyl-3-(trifluoromethyl)-1H-pyrazol-4-yl)-3,4-dihydroisoquinolin-1(2H)-one], for which the GI50 was under 20 nM.

Consider `CCc1cc(N2CCN(C(C)C)CC2)c2nc(C)cc(N3CCc4c(cc(Cn5ccnc5)cc4-c4cn(C)nc4C(F)(F)F)C3=O)c2c1` [Example 137, 7-((1H-Imidazol-1-yl)methyl)-2-(6-ethyl-8-(4-isopropylpiperazin-1-yl)-2-methylquinolin-4-yl)-5-(1-methyl-3-(trifluoromethyl)-1H-pyrazol-4-yl)-3,4-dihydroisoquinolin-1(2H)-one], for which the GI50 is under 20 nM.

For `CCc1cc(N2CCOCC2)c2nc(C)cc(N3CCc4c(cc(Cn5ccnc5)cc4-c4cn(C)nc4C(F)(F)F)C3=O)c2c1` [Example 145, 7-((1H-Imidazol-1-yl)methyl)-2-(6-ethyl-2-methyl-8-morpholinoquinolin-4-yl)-5-(1-methyl-3-(trifluoromethyl)-1H-pyrazol-4-yl)-3,4-dihydroisoquinolin-1(2H)-one], the GI50 was 36 nM.

With `COc1cc(N2CCOCC2)c2nc(C)cc(N3CCc4c(cc(Cn5ccnc5)cc4-c4cn(C)nc4C(F)(F)F)C3=O)c2c1` [Example 146, 7-((1H-Imidazol-1-yl)methyl)-2-(6-methoxy-2-methyl-8-morpholinoquinolin-4-yl)-5-(1-methyl-3-(trifluoromethyl)-1H-pyrazol-4-yl)-3,4-dihydroisoquinolin-1(2H)-one], the GI50 amounted to 26 nM.

Turning to `CCc1cc(C2=CCN(C)CC2)c2nc(C)cc(N3CCc4c(cc(Cn5ccnc5)cc4-c4cn(C)nc4C(F)(F)F)C3=O)c2c1` [Example 147, 7-((1H-imidazol-1-yl)methyl)-2-(6-ethyl-2-methyl-8-(1-methyl-1,2,3,6-tetrahydropyridin-4-yl)quinolin-4-yl)-5-(1-methyl-3-(trifluoromethyl)-1H-pyrazol-4-yl)-3,4-dihydroisoquinolin-1(2H)-one], the GI50 was 43 nM.
